Values of other authors as cited in US20160270390A1, “POLYMERIC FILM FOR AG[…] STORAGE, […] THEREFROM AND RELATED METHODS OF AG[…] STORAGE” (priority 2012, published 2016).

Test system: insect pests
Details: Zimbabwe, grain damage of 92% reported due to insect pests

CCOC(=O)CC(SP(=S)(OC)OC)C(=O)OCC (stereo not shown) [malthion]
reduction of grain damage in stored maize: 10%
